# Data: patent publication US12065427B2, “Heterocyclic compounds capable of activating STING” (BOEHRINGER INGELHEIM INTERNATIONAL GMBH, priority 2021, dated 2024)
# Columns and labels:
# STING HAQ-variant = target: T1, STING HAQ-variant (Homo sapiens, UniProt Q86WV6, G230A/H232R/R293Q/R71H); assay: IRF-inducible SEAP reporter assay in THP1-Blue ISG cells, STING HAQ-variant; format: cell-based; details: STING HAQ-variant (parental or re-introduced), 24 hours incubation
# T1 construct: parental THP1-Blue™ ISG cell lines (which express endogenously HAQ); host or cells: THP1-Blue ISG (parental, endogenous HAQ) or STING-KO clone re-transduced with HAQ (MSCV-ires-GFP-Blasti)
# From the text: (§1) In Vitro Cytokine Induction Measured Via Activation of an Interferon Regulatory Factor Inducible Reporter Gene
# (§2) Activation of the STING protein expressed in cell lines results in an increase of interferon production. By the stable integration of an interferon regulatory factor (IRF)-inducible SEAP gene (secreted embryonic alkaline phosphatase) reporter construct the functional interferon signaling pathway can be monitored. Using Invivogen's THP1-Blue™ ISG colorimetric enzyme assay and a suitable optical density (OD) reader the activity of SEAP can be detected and quantified. This technique could be used to characterize pharmacological modification of the STING pathway.
# (§3) Several single nucleotide polymorphisms have been identified in the human STING gene. To determine the activity of the above described compounds, THP1-Blue™ ISG reporter cell lines expressing the different human STING variants have been generated. To do so, the endogenous human STING was first deleted using the CRISPR/CAS9 system: THP1-Blue ISG cells were electroporated with ALL-IN-ONE CRISPR plasmids targeting the STING gene (purchased from Sigma encoding the gRNA and GFP as a reporter gene for successful transduction). GFP positive cells then were sorted 24 h post transfection and expanded. Cells were then dispersed in semisolid methocel medium to allow single cell clone isolations. Clones were then screened for cGAMP responsiveness using the Quanti-Blue™ reporter assay. Non-responsive clones were subsequently analysed for STING loss by western blotting and sequencing of the STING locus.
# (§4) For the overexpression of the human STING variants, a confirmed THP1-Blue™ ISG hSTING KO clone was transduced with individual retroviral plasmids (MSCV-ires-GFP-Blasti) encoding the allelic variants of hSTING (WT (H232R), HAQ, R232H, AQ and R293Q). Transduced cells were sorted for different levels of GFP fluorescence and STING allele expression was analysed by western blot.
# (§5) Measurements of SEAP activity were performed in THP1-Blue™ ISG cells stably expressing the different human STING isoforms and the IRF-inducible SEAP reporter construct. Cells were cultivated in RPMI1640 medium with 10% fetal calf serum, 50 μg/ml Penicillin-Streptomycin, 100 μg/ml Zeocin, and 100 μg/ml Normocin in a 37°, 95% humidity and 5% CO2 incubator.
# (§6) In preparation for the assay, the cells were distributed into the assay plates with a density of 10000 cells/15 μL per well. Compounds were prepared by an 8 point serial dilution in 50% aqueous DMSO and a final dilution step into medium to ensure a final DMSO concentration of 0.5% in the assay. 5 μL of diluted compounds were added to the plates, followed by a 24 hours incubation at 37° C.
# (§7) At the day of the assay, 75 μl per well of Quanti-Blue™ reagent was added to all wells of the plate and the plate was incubated another 30 minutes at 37° C. The OD at 620 nm was measured on the EnVision reader (PerkinElmer).
# (§8) EC50 values and Hill slopes were derived from 8-point four parametric non-linear curve fittings with the Megalab software (Boehringer Ingelheim) using the OD at 620 nm.
# (§9) Data of EC50 values can be found in tables 2a-2e.
# Data of EC50 values on STING HAQ-variant can be found in table 2a. Shown data below were either derived from the parental THP1-Blue™ ISG cell lines (which express endogenously HAQ) or from genetically engineered THP1-Blue™ ISG cell lines in which first STING has been knocked-out and the HAQ specific STING isoform has been re-introduced as described above.
# STING H232R-variant = target: T2, STING H232R-variant (Homo sapiens, UniProt Q86WV6, H232R); assay: IRF-inducible SEAP reporter assay in THP1-Blue ISG cells, STING H232R-variant; format: cell-based; details: STING H232R-variant (WT), 24 hours incubation
# T2 construct: expressed in transfected cells; host or cells: THP1-Blue ISG hSTING KO clone, retroviral MSCV-ires-GFP-Blasti
# From the text: as §1, §2, §3, §4, §5, §6, §7, §8, §9
# Data of EC50 values on STING H232R-variant can be found in table 2b: […]
# STING R232H-variant = target: T3, STING R232H-variant (Homo sapiens, UniProt Q86WV6); assay: IRF-inducible SEAP reporter assay in THP1-Blue ISG cells, STING R232H-variant; format: cell-based; details: 24 hours incubation
# T3 construct: expressed in transfected cells; host or cells: THP1-Blue ISG hSTING KO clone, retroviral MSCV-ires-GFP-Blasti
# From the text: as §1, §2, §3, §4, §5, §6, §7, §8, §9
# Data of EC50 values on STING R232H-variant can be found in table 2c: […]
# STING R293Q-variant = target: T4, STING R293Q-variant (Homo sapiens, UniProt Q86WV6, H232R/R293Q); assay: IRF-inducible SEAP reporter assay in THP1-Blue ISG cells, STING R293Q-variant; format: cell-based; details: 24 hours incubation
# T4 construct: expressed in transfected cells; host or cells: THP1-Blue ISG hSTING KO clone, retroviral MSCV-ires-GFP-Blasti
# From the text: as §1, §2, §3, §4, §5, §6, §7, §8, §9
# Data of EC50 values on STING R293Q-variant can be found in table 2d: […]
# in vitro = details: human, Caco-2, pH 7.4
# Description: Cellular Permeability Measurements
# Caco-2 cells were obtained from Leibniz Institute DSMZ-German Collection of Microorganisms and Cell Cultures (Braunschweig, Germany) and cultured in DMEM (Dulbecco's modified Eagle medium) containing (in final concentrations) 10% FCS (fetal calf serum), 1% NEAA (non-essential amino acids), 2 mM Glutamin, 100 U/mL Penicillin and 100 μg/mL Streptomycin. Caco-2 cells were seeded either onto 24-well Transwell inserts (Corning, #3379) for bidirectional permeability assays at a density of 160,000 cells/cm^2 and cultured for 3 weeks, with media change on every second day.
# For bidirectional permeability assays 10 mM DMSO stock solutions were diluted in transport buffer (final concentrations: 128.13 mM NaCl, 5.36 mM KCl, 1 mM MgSO4, 1.8 mM CaCl2, 4.17 mM NaHCO3, 1.19 mM Na2HPO4, 0.41 mM NaH2PO4, 15 mM 2-[4-(2-hydroxyethyl)piperazin-1-yl]ethanesulfonic acid (HEPES), 20 mM glucose, pH 7.4) containing 0.25% bovine serum albumin to a final concentration of 10 μM of the test compounds and added to the apical or basal compartment. Cells were incubated with the compounds for up to 2 h. Samples from the opposite compartment were taken at different timepoints.
# Compound concentrations in the compartments were quantified using a RapidFire-based high-throughput HPLC/MS/MS system (high performance liquid chromatography/mass spectrometry; Bio-Cius) that was customized to a fully automated and flexible platform, termed RIAS. In this modified setup, the sample was aspirated by a vacuum pump into a 10 μL sample loop for 250 ms and flushed onto a C4 cartridge (3.8 μL bed volume; Bio-Cius) with the aqueous mobile phase (99.9% water, 0.09% formic acid, and 0.01% TFA; flow rate 1.5 mL/min). Prior to bioanalysis samples were spiked with internal standard solution and diluted with acetonitrile (ACN) for protein precipitation. Measurement was operated in multiplereaction monitoring (MRM) mode. Quantification was performed using external calibration. A solid-phase extraction step retained the analyte for 3000 ms while interfering matrix (e.g., buffer components) was removed. With a simple step gradient, the analyte was back-eluted from the cartridge for 3,000 ms with the organic mobile phase (99.9% acetonitrile/methanol [1:1, v:v], 0.09% formic acid, and 0.01% TFA) and flushed into the mass spectrometer at a flow rate of 1.25 mL/min. Afterwards, the cartridge was re-equilibrated with the aqueous mobile phase for 500 ms (flow rate 1.5 mL/min).
# Apparent permeability coefficients in the apical to basal direction (Papp,AB) and in the basal to apical direction (Papp,BA) and efflux ratios were calculated as follows: Papp,AB=QAB/(C0·s·t) Papp,BA=QBA/(C0·s·t) Efflux ratio=Papp,BA/Papp,AB
# where Q is the amount of compound recovered in the receiver compartment after the incubation time t, C0 the initial compound concentration given to the donor compartment, and s the surface area of the Transwell inserts. […] In addition, transepithelial electrical resistance (TEER) values are measured for each plate before the permeability assay, and total recovery in donor and receiver compartments was determined for each compound.
# [1] = test system: Human STING (hSTING, residues 155-341); assay: Interaction with hSTING as determined by Differential Scanning Fluorimetry (DSF); format: binding; details: 100 μM test compounds, 5 μM target protein
# Description: Interaction with hSTING as Determined by Differential Scanning Fluorimetry (DSF)
# In DSF, the temperature at which a protein unfolds, also called the melting temperature Tm, is measured by changes in fluorescence of a dye that binds to the hydrophobic parts of the protein. Tm shifts upon binding of a small molecule are correlated with the binding affinity of this small molecule. As target protein, Human STING (hSTING, residues 155-341, MW: 21578.4 Da; protein stock solution: c=1302 μM stock solution in 20 mM Tris, 100 mM NaCl, 2 mM TCEP pH 8.8) was used, as assay buffer 20 mM Tris, 150 mM NaCI pH7.5 was added where and as necessary.
# Final concentrations of components in assay: 100 μM test compounds, 5 μM target protein, “5×” SYPR Orange (from stock solution SYPRO orange solution in DMSO (invitrogen cat.-no. S6650-500 ul), concentration “5000×”)
# 1) Dilutions of compound stock solutions (10 mM in DMSO) were prepared in assay buffer (20 mM Tris, 150 mM NaCl; pH7.5)
# 2) 5 μl fluorescent dye stock solution (5000×SYPRO Orange in DMSO) was mixed with 19 μl target protein (1302 μM) and 976 μl assay buffer.
# 3) 2 μl of this protein-dye-mixture (25×SYPRO Orange and 25 μM Protein) was added to 8 μl diluted compound solution as prepared in step 1. Final volume was 10 μl.
# 4) With every 20 compounds, two negative controls were measured.
# 5) The plates were prepared for duplicate measurement and centrifuged for 2 min at 1000 g.
# 6) For the measurement, a CFX384 Real-Time System (Bio-Rad) was used. The run consisted of 140 cycles with 0.5° C./cycle (temperature ramp 15 s/cycle, 25° C. to 95° C.).
# Data analysis: The melting curves were processed in Bio-Rad CFX Manager. Peak type was set to “negative”. Two replicates of TM (melting temperature) measurements were averaged and the standard deviation was calculated.
# T1 sequence (Q86WV6 whole entry R71H/G230A/H232R/R293Q): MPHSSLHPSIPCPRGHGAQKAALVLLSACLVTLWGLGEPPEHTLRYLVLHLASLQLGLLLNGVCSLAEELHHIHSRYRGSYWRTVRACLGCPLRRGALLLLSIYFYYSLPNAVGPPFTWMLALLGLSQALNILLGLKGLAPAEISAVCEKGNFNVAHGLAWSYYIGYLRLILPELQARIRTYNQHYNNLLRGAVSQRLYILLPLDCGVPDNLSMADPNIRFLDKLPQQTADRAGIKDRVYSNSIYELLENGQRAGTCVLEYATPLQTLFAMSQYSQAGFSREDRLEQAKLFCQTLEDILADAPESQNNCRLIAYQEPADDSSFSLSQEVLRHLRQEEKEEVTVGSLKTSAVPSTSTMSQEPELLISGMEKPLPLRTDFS
# T4 sequence (Q86WV6 whole entry H232R/R293Q): as the sequence (Q86WV6 whole entry R71H/G230A/H232R/R293Q) above, with H71R, A230G counted along it
# T3 sequence (Q86WV6 whole entry, stated change not applied): as the sequence (Q86WV6 whole entry R71H/G230A/H232R/R293Q) above, with H71R, A230G, R232H, Q293R counted along it
# T2 sequence (Q86WV6 whole entry H232R): as the sequence (Q86WV6 whole entry R71H/G230A/H232R/R293Q) above, with H71R, A230G, Q293R counted along it
EC50 (STING HAQ-variant) [µM],EC50 (STING H232R-variant) [nM],EC50 (STING R232H-variant) [nM],EC50 (STING R293Q-variant) [nM],Papp A→B at 10 μM (in vitro) [×10⁻⁶ cm/s],efflux ratio at 10 μM (in vitro),Compound,thermal shift (ΔTm) [1] [K]
1.4,500,1000,1200,,,"Cc1cccc2c(-c3cccc4nn(C)cc34)nn(-c3ccc(N4CCS(=O)(=O)CC4)nc3)c12 [Example #5, 4-(5-{2,7-dimethyl-1H,2′H-[3,4′-biindazol]-1-yl}pyri-din-2-yl)-1λ^6-thiomorpho-line-1,1-dione]",
3.1,,,,39,0.4,"CC(=O)N(C)C1CCN(c2ccc(-n3nc(-c4cccc5nn(C)cc45)c4cccc(C)c43)cn2)C1 (centres unmarked) [Example #6, N-[1-(5-{2′,7-dimethyl-1H,2′H-[3,4′-biindazol]-1-yl}pyridin-2-yl)pyrrolidin-3-yl]-N-methylacetamide]",22
4.3,,,,,,"C#Cc1cccc2c(-c3cccc4nn(C)cc34)nn(-c3ccc(N4CC5C(C4)C5C(=O)O)nc3)c12 (centres unmarked) [Example #74, 3-(5-{7-ethynyl-2′-methyl-1H,2′H-[3,4′-biindazol]-1-yl}pyridin-2-yl)-3-azabicyclo[3.1.0]hexane-6-carboxylic acid]",16
1.1,,,,,,"Cc1cccc2c(-c3cccc4nn(C)cc34)nn(-c3ccc(N4CC5(CCS(=O)(=O)CC5)C4)nc3)c12 [compound 4, 2-(5-{2′,7-dimethyl-1H,2′H-[3,4′-biindazol]-1-yl}pyri-din-2-yl)-7λ^6-thia-2-azaspiro[3.5]nonane-7,7-dione]",20
1.2,,,,,,"Cc1cccc2c(-c3cccc4nn(C)cc34)nn(-c3ccc(N4CCN5C(=O)OCC5C4)nc3)c12 (centres unmarked) [compound 8, 7-(5-{2′,7-dimethyl-1H,2′H-[3,4′-biindazol]-1-yl}pyri-din-2-yl)-hexahydro-1H-[1,3]oxazolo[3,4-a]pyrazin-3-one]",21
3.2,,,,27,0.3,"Cc1cccc2c(-c3cccc4nn(C)cc34)nn(-c3ccc(N4CC5CC4CO5)nc3)c12 (centres unmarked) [compound 11, 2′,7-dimethyl-1-(6-{2-oxa-5-azabicyclo[2.2.1]heptan-5-yl}pyridin-3-yl)-1H,2′H-3,4′-biindazole]",21
6.9,,,,39,0.3,"COCCNc1ccc(-n2nc(-c3cccc4nn(C)cc34)c3cccc(C)c32)cn1 [compound 14, 5-{2′,7-dimethyl-1H,2′H-[3,4′-biindazol]-1-yl}-N-(2-methoxyethyl)pyridin-2-amine]",18
2.2,,,,,0.8,"Cc1cccc2c(-c3cccc4nn(C)cc34)nn(-c3ccc(N4CCC(c5cnn(C)c5)CC4)nc3)c12 [compound 20, 2′,7-dimethyl-1-{6-[4-(1-methyl-1H-pyrazol-4-yl)pi-peridin-1-yl]pyridin-3-yl}-1H,2′H-3,4′-biindazole]",20
4.7,,,,23,0.3,"Cc1cccc2c(-c3cccc4nn(C)cc34)nn(-c3ccc(N4CCC(N5CCCC5=O)CC4)nc3)c12 [compound 21, 1-[1-(5-{2′,7-dimethyl-1H,2′H-[3,4′-biindazol]-1-yl}pyridin-2-yl)piperidin-4-yl]pyrrolidin-2-one]",20
0.2,,,,,,"COC(=O)c1ccc2c(-c3cccc4nn(C)cc34)nn(-c3ccc(N4CCC(S(C)(=O)=O)CC4)nc3)c2c1C [compound 25, methyl 1-[6-(4-meth-anesulfonylpiperidin-1-yl)pyridin-3-yl]-2′,7-di-methyl-1H,2′H-[3,4′-biindazole]-6-carboxylate]",25
5.2,,,,32,0.5,"Cc1cccc2c(-c3cccc4nn(C)cc34)nn(-c3ccc(N4CCC(C)(C(=O)O)CC4)nc3)c12 [compound 27, 1-(5-{2′,7-dimethyl-1H,2′H-[3,4′-biindazol]-1-yl}pyri-din-2-yl)-4-methylpiperi-dine-4-carboxylic acid]",22
5.4,,,,,0.6,"CCOC(=O)C1CCN(c2ccc(-n3nc(-c4cccc5nn(C)cc45)c4cccc(C)c43)cn2)CC1 [compound 31, ethyl 1-(5-{2′,7-dimethyl-1H,2′H-[3,4′-biindazol]-1-yl}pyridin-2-yl)piperidine-4-carboxylate]",
1.9,,,,,,"Cc1cccc2c(-c3cccc4nn(C)cc34)nn(-c3ccc(N4CCCNCC4)nc3)c12 [compound 45, 1-(6-(1,4-diazepan-1-yl)pyridin-3-yl)-2′,7-dimethyl-1H,2′H-3,4′-biindazole]",19
1.9,,,,,0.4,"Cc1cccc2c(-c3cccc4nn(C)cc34)nn(-c3ccc(N4CCCN(C=O)CC4)nc3)c12 [compound 52, 4-(5-{2′,7-dimethyl-1H,2′H-[3,4′-biindazol]-1-yl}pyridin-2-yl)-1,4-di-azepane-1-carbalde-hyde]",21
6.6,,,,19,0.9,"Cc1cccc2c(-c3cccn4nccc34)nn(-c3ccc(N4CCC(C(=O)O)CC4)nc3)c12 [compound 60, 1-[5-(7-methyl-3-{pyra-zolo[1,5-a]pyridin-4-yl}-1H-indazol-1-yl)pyridin-2-yl]piperidine-4-carboxylic acid]",
4.4,,,,,0.5,"Cc1cccc2c(-c3cccc4nn(C)cc34)nn(-c3ccc(-c4ccc(S(C)(=O)=O)cc4)nc3)c12 [compound 73, 1-[6-(4-methanesulfonylphenyl)pyridin-3-yl]-2′,7-dimethyl-1H,2′H-3,4′-biindazole]",
